Laboratory results: patent US20230167114A1, “MACROCYCLIC JAK INHIBITOR AND USE THEREOF” (Biopolar Hongye (Guangdong) Pharmaceutical Co., Ltd., priority 2020, published 2023)

Key:
Format in all cases: biochemical
JAK3 = molecular target: T1, JAK3 (Homo sapiens, UniProt P52333); assay: JAK kinase activity, homogeneous time-resolved fluorescence (JAK3 reaction system); conditions: ATP 2 μM, JAK3 protein 0.04 ng/μL; read-out: JAK 3 activity
T1 sequence (P52333 1-1124): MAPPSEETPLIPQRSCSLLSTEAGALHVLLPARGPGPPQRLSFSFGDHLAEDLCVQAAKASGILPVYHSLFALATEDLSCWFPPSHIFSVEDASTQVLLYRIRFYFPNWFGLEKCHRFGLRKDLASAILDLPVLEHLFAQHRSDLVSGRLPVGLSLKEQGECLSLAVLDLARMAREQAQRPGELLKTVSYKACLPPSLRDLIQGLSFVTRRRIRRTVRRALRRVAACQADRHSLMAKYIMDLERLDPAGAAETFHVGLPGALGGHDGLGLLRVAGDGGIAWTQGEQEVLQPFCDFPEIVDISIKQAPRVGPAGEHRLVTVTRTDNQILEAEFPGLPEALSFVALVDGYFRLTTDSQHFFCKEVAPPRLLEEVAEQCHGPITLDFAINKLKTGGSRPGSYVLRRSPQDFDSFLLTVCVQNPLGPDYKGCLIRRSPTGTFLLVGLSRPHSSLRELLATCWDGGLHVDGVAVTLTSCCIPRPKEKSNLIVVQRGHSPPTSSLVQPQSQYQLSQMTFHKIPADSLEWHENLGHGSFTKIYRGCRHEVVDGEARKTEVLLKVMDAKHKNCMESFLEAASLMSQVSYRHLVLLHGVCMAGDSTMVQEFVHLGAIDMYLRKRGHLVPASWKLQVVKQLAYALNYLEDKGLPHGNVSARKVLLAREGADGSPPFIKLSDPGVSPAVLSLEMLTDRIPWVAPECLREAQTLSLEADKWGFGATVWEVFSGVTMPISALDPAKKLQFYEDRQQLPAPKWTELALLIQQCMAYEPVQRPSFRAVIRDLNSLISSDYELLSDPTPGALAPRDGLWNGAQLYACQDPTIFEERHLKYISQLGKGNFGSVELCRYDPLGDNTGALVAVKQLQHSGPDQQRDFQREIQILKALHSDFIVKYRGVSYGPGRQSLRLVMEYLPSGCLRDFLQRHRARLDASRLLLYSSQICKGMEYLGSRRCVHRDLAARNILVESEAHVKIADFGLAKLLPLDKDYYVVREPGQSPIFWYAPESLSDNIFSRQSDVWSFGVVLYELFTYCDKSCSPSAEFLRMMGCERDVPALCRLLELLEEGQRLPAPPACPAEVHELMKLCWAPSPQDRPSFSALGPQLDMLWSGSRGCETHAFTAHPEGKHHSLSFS
Protocol: (§1) The activity measurement method of JAK kinase was to use homogeneous time-resolved fluorescence technique. The reaction was performed in 384 shallow well plates with a total reaction volume of 10 μL. The mixture of kinase protein, compound, ATP and substrate was carried out in a reaction buffer of 50 mM Hepes (pH7.0), NaN3 0.02%, BSA 0.01%, 0.1 mM orthocanadate, 5 mM MgCl2, and 1 mM DTT. After reacting for 1 hour, antibody capable of recognizing substrate phosphorylation and dye XL-615 and detection buffer (Cisbio) containing EDTA were added to the system. The reaction signal of kinase was detected by PE company's porous plate detector. The parameter settings were excitation light at 320 nm, emission light at 615 nm and 665 nm. The activity of JAK is indirectly reflected by the signal ratio of 665 nm and 615 nm. In the reaction, the background well without enzyme and the total enzyme activity well without compound were set.
(§2) The IC50 value of the compound inhibiting protein was obtained by the formula: Y=100/(1+10^((Log IC50−X)*HillSlope)).
In JAK3 reaction system, the concentration of ATP was 2 μM, and the concentration of JAK3 protein was 0.04 ng/μL.

JAK2 = JAK2 (Homo sapiens, UniProt O60674); assay: JAK kinase activity, homogeneous time-resolved fluorescence (JAK2 reaction system); conditions: ATP 2 μM, JAK2 protein 0.01 ng/μL
Protocol: as §1, §2
In JAK2 reaction system, the concentration of ATP was 2 μM, and the concentration of JAK2 protein was 0.01 ng/μL.

JAK1 = JAK1 (Homo sapiens, UniProt P23458); assay: JAK kinase activity, homogeneous time-resolved fluorescence (JAK1 reaction system); conditions: ATP 2 μM, JAK1 protein 0.2 ng/μL; read-out: JAK 1 activity
Protocol: as §1, §2
In JAK1 reaction system, the concentration of ATP was 2 μM, and the concentration of JAK1 protein was 0.2 ng/μL.

TYK2 = TYK2 (Homo sapiens, UniProt P29597); assay: JAK kinase activity, homogeneous time-resolved fluorescence (TYK2 reaction system); conditions: ATP 2 μM, TYK2 protein 0.2 ng/μL; read-out: TYK 2 activity
Protocol: as §1, §2
In TYK2 reaction system, the concentration of ATP was 2 μM and the concentration of TYK2 protein was 0.2 ng/μL.

Sequence of JAK1 (P23458 whole entry): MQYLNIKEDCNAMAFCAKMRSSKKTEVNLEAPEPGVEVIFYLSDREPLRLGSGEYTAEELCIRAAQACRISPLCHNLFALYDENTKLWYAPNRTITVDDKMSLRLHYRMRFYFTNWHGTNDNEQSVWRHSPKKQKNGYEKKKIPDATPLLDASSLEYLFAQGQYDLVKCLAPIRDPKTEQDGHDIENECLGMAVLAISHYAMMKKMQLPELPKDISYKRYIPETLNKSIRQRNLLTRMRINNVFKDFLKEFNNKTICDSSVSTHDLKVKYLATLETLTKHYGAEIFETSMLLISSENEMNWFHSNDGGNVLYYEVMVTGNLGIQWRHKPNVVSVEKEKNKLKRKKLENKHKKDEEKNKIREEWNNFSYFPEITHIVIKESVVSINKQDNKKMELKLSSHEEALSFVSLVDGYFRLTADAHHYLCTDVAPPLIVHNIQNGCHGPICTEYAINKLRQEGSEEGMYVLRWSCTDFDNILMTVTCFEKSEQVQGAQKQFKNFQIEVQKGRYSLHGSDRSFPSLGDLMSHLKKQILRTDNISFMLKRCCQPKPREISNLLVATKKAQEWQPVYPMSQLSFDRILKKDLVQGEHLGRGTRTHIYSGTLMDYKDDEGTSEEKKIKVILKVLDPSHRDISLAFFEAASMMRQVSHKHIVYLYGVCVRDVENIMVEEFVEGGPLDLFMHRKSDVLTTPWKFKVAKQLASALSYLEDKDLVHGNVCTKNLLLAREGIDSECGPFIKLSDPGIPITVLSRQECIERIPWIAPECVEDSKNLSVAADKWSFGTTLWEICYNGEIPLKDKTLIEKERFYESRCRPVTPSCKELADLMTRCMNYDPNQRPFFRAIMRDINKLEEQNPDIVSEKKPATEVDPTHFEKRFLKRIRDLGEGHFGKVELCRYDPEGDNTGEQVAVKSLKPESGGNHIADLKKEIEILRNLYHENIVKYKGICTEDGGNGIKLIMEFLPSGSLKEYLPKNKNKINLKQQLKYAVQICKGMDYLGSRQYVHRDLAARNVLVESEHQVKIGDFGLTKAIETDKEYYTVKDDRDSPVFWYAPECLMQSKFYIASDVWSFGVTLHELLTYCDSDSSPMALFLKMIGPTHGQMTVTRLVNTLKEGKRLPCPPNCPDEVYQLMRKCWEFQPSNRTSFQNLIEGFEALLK
Sequence of TYK2 (P29597 whole entry): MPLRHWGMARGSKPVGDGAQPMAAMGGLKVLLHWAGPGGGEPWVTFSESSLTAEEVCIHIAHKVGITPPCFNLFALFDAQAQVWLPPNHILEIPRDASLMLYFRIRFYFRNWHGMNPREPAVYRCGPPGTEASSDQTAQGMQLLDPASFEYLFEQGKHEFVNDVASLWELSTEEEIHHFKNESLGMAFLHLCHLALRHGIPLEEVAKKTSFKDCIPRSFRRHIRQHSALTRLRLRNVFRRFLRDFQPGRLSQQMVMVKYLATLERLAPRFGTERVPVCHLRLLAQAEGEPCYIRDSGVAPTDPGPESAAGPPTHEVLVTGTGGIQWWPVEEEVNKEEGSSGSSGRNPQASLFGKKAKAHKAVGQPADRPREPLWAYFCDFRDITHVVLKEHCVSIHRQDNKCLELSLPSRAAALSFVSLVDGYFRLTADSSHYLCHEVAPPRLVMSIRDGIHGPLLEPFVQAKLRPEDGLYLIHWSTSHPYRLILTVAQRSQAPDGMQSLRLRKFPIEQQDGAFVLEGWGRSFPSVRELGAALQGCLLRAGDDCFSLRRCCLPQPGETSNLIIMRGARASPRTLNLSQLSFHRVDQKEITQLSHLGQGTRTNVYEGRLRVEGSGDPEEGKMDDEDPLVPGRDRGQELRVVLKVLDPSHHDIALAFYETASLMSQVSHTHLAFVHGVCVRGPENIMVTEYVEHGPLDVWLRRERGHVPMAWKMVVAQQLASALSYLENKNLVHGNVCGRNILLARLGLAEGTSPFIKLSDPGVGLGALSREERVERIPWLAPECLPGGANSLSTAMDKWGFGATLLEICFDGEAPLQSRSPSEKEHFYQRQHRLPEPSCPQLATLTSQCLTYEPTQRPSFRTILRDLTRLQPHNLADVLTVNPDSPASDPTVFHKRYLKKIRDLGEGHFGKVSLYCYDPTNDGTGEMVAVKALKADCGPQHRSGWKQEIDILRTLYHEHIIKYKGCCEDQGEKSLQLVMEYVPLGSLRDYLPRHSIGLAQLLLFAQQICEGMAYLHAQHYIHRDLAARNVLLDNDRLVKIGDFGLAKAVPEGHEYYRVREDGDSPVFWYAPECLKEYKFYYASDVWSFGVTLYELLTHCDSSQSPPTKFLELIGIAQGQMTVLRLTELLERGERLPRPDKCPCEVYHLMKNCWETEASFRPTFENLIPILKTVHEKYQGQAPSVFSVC
Sequence of JAK2 (O60674 whole entry): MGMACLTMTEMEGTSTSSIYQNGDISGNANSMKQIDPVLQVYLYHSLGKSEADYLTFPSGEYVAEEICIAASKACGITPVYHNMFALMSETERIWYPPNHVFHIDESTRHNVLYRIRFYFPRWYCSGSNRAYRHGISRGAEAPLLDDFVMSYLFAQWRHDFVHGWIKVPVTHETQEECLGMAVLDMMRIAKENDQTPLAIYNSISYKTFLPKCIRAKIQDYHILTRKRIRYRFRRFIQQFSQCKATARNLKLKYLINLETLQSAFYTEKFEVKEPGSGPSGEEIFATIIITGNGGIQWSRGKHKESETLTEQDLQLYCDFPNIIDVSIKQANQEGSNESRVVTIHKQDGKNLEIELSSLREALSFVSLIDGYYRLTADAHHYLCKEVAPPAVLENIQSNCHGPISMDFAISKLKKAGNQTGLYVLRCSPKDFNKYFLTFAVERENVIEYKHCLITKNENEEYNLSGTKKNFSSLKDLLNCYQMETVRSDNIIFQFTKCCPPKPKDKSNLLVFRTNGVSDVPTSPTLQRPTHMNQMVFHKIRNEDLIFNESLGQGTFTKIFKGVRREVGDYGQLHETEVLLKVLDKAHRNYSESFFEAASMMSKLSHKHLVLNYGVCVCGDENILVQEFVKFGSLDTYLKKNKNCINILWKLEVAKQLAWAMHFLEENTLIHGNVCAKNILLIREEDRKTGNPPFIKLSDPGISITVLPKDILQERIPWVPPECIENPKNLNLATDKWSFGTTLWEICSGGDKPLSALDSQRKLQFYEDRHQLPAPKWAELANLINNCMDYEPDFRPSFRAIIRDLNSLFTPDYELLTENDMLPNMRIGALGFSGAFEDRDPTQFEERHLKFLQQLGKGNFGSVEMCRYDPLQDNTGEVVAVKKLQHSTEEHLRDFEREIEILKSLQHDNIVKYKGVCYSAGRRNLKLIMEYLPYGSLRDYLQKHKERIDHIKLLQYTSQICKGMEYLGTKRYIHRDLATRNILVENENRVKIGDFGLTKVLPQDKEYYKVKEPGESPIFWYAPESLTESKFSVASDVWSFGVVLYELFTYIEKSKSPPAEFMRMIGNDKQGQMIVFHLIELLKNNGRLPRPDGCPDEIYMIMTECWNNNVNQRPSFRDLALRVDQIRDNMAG

Structure (SMILES)	IC50 (JAK3)	IC50 (JAK2)	IC50 (JAK1)	IC50 (TYK2)
COC(=O)c1cc2ccc1C(=O)NCCCCCNc1nc(ncc1C)Nc1cc-2cnc1F [Compound 19, methyl 2^6-fluoro-4^5-methyl-12-oxo-3,5,11-triaza-4(2,4)-pyrimidina-2(3,5)-pyridina-1(1,4)-benzenacyclododecaphane-1^3-carboxylate]	1 to 10 µM	0.101 to 1 µM	0.101 to 1 µM	> 10 µM
Cc1cnc2nc1NCCCCCNC(=O)c1ccc(cc1Cl)-c1cnc(F)c(c1)N2 [Compound 14, 1^3-chloro-2^6-fluoro-4^5-methyl-3,5,11-triaza-4(2,4)-pyrimidina-2(3,5)-pyridina-1(1,4)-benzenacyclododecaphan-12-one]	1 to 10 µM	0.101 to 1 µM	0.101 to 1 µM	1 to 10 µM
Cc1cnc2nc1NCCCCCNC(=O)c1ccc(cc1C(=O)Nc1ccccc1)-c1cnc(F)c(c1)N2 [Compound 42, 2^6-fluoro-4^5-methyl-12-oxo-N-phenyl-3,5,11-triaza-4(2,4)-pyrimidina-2(3,5)-pyridina-1(1,4)-benzenacyclododecaphane-1^3-formamide]	1 to 10 µM	1 to 10 µM	1 to 10 µM	> 10 µM
Cc1cnc2nc1NCCCCCCCNC(=O)c1ccc(cc1F)-c1cnc(F)c(c1)N2 [Compound 12, I^3,2^6-difluoro-4^5-methyl-3,5,13-triaza-4(2,4)-pyrimidina-2(3,5)-pyridina-1(1,4)-benzenacydododecaphan-12-one]	1 to 10 µM	0.101 to 1 µM	0.101 to 1 µM	1 to 10 µM
Cc1cnc2nc1Nc1ccccc1CCCNC(=O)c1ccc(cc1F)-c1cnc(F)c(c1)N2 [Compound 32, 1^3,2^6-difluoro-4^5-methyl-3,5,10-triaza-4(2,4)-pyridina-1(5,2),2(3,5)-dipyridina-6(1,2)-benzenacycloundecaphan-11-one]	0.101 to 1 µM	0.011 to 0.1 µM	0.011 to 0.1 µM	1 to 10 µM
Cc1cc2ccc1C(=O)NCCCCCNc1nc(ncc1C)Nc1cc-2cnc1F [Compound 11, 2^6-fluoro-l^3,4^5-dimethyl-3,5,11-triaza-4(2,4)-pyrimidina-2(3,5)-pyridina-1(1,4)-benzenacyclododecaphan-12-one]	1 to 10 µM	0.101 to 1 µM	0.101 to 1 µM	1 to 10 µM
Cc1cnc2nc1NCCCCCNC(=O)c1ccc(cc1C(=O)O)-c1cnc(F)c(c1)N2 [Compound 21]	0.101 to 1 µM	0.011 to 0.1 µM	0.101 to 1 µM	1 to 10 µM

Continued, values first:

IC50 (JAK3)	IC50 (JAK2)	IC50 (JAK1)	IC50 (TYK2)	Structure (SMILES)
0.101 to 1 µM	0.011 to 0.1 µM	0.011 to 0.1 µM	1 to 10 µM	Cc1cnc2nc1NCCCCCNC(=O)c1ccc(c(F)c1)-c1cnc(F)c(c1)N2 [Compound 3, 1^2,2^6-difluoro-4^5-methyl-3,5,11-triaza-4(2,4)-pyrimidina-2(3,5)-pyridina-1(1,4)-benzenacyclododecaphan-12-one]
0.101 to 1 µM	0.101 to 1 µM	0.011 to 0.1 µM	1 to 10 µM	Cc1cnc2nc1Nc1cccc(c1)COCCCC(=O)N1CCN(CC1)c1cnc(F)c(c1)N2 [Compound 15, 2^6-fluoro-4^5-methyl-8-oxa-3,5-diaza-4(2,4)-pyrimidina-1(1,4)-piperazina-2(3,5)-pyridina-6(1,3)-benzenacyclododecaphan-12-one]
0.101 to 1 µM	0.011 to 0.1 µM	0.011 to 0.1 µM	0.101 to 1 µM	Cc1cnc2nc1Nc1cc(ccc1O)CCNC(=O)c1ccc(cc1)-c1cnc(F)c(c1)N2 [Compound 48, 2^6-fluoro-6^6-hydroxy-4^5-methyl-3,5,9-triaza-4(2,4)-pyrimidina-2(3,5)-pyridina-1-2,(1,4),6(1,3)-dibenzenacyclodecaphan-10-one]
0.011 to 0.1 µM	< 0.01 µM	< 0.01 µM	0.101 to 1 µM	Cc1cnc2nc1Nc1cccc(c1)CCCNC(=O)c1ccc(cc1S(C)(=O)=O)-c1cnc(F)c(c1)N2 [Compound 25, 2^6-fluoro-4^5-methyl-1^3-(methylsulfonyl)-3,5,10-triaza-4(2,4)-pyrimidina-2(3,5)-pyridina-1(1,4),6(1,3)-dibenzenacycloundecaphan-11-one]
0.011 to 0.1 µM	< 0.01 µM	< 0.01 µM	0.101 to 1 µM	COC(=O)c1cc2ccc1C(=O)NCCCc1cccc(c1)Nc1nc(ncc1C)Nc1cc-2cnc1F [Compound 36, Methyl 2^6-fluoro-4^5-methyl-11-oxo-3,5,10-triaza-4(2,4)-pyrimidina-2(3,5)-pyridina-1(1,4),6(1,3)-dibenzenacycloundecaphan-1^3-carboxylate]
